For 29 molecules, IC50 and EC50 results are on record in patent US5276049A, “Cyclic urea derivatives, pharmaceutical compositions containing these compounds and methods of using the same” (Dr. Karl Thomae GmbH, priority 1991, dated 1994).

Counter-ions that a name gives are not always drawn.

The subject of experiment [1] is Human Thrombocytes. In words: Fibrinogen Binding to Human Thrombocytes (I125-fibrinogen, gel-filtered platelets). The note with it: inhibition of I125-fibrinogen binding to gel-filtered human platelets, ADP, 20 minutes, ambient temperature; read-out: Fibrinogen Binding test IC50. How it is done: 1. Fibrinogen Binding to Human Thrombocytes Blood obtained by puncture of an antecubital vein was anticoagulated with trisodium citrate (final concentration: 13 mM) and centrifuged for 10 minutes at 170 *g. The supernatant platelet-rich plasma was placed on a Sepharose 2B column (Pharmacia) and eluted with a solution of 90 mM common salt, 14 mM trisodium citrate, 5 mM glucose and 50 mM tris(hydroxymethyl)aminomethane, adjusted to pH 7.4. The gel-filtered platelets (GFP) appearing in front of the plasma proteins were used for the binding tests. 50 μl of a 60 mM calcium chloride solution, 50 μl of a 0.6 mM adenosine diphosphate solution, 100 μl of substance solution or solvent and 50 μl of fibrinogen solution (containing 3 μg I125-fibrinogen) were added to 750 μl of GFP and incubated for 20 minutes at ambient temperature. The non-specific binding was measured in the presence of 3 mg/ml of cold fibrinogen. 900 μl of the incubate were carefully pipetted onto 250 μl of silicon oil (AP 38: AR 20, 1:2 v/v, Wacker Chemie) in Eppendorf vessels and centrifuged for 2 minutes at 10,000 *g. The aqueous supernatant and some of the oil were removed, the tip of the vessel with the platelet pellet was cut off and the quantity of bound fibrinogen was measured in a gamma-counter. The concentration of substance which inhibited fibrinogen binding by 50% was calculated from a series of concentrations and given as the IC50.

For experiment [2], the system named is thrombocyte aggregation in platelet-rich plasma. The experiment is described as follows: Antithrombotic effect: collagen-induced thrombocyte aggregation in platelet-rich plasma (Born and Cross). The note with it: human platelet-rich plasma, 10 minutes preincubation at 37° C., read-out: Inhibition of platelet aggregation EC50. The format is cell-based. How it is done:
2. Antithrombotic Effect Method: The thrombocyte aggregation was measured in platelet-rich plasma from healthy test subjects using the Born and Cross method (J. Physiol. 170: 397 (1964)). In order to inhibit coaggulation the blood was mixed with 3.14% sodium citrate in a ratio by volume of 1:10. Collagen-induced aggregation: The decrease in the optical density of the platelet suspension was measured photometrically and recorded after the addition of the aggregation-initiating substance. The speed of aggregation was concluded from the angle of inclination of the density curve. The point on the curve at which there was maximum transmittance was used to calculate the optical density. The quantity of collagen used was as little as possible but sufficient to give an irreversible reaction curve. Standard commercial collagen produced by Hormonchemie of Munich was used. Before the addition of collagen the plasma was incubated with the substance for 10 minutes at 37° C. From the measurements obtained, an EC50 was determined graphically, relating to a 50% change in the optical density in terms of inhibiting aggregation.

As a reminder, the IC50 is the point on the concentration scale where inhibition reaches its midpoint. A word on the EC50: it is the midpoint of the concentration-response curve. For `NCc1ccc(N2CCN(c3ccc(OCC(=O)O)cc3)C2=O)cc1` [1(141), 1-(4-aminomethyl-phenyl)-3-(4-carboxymethyloxyphenyl)-imidazolidin-2-one], in experiment [1], the IC50 was 0.31 µM. In experiment [2], the concentration giving a half-maximal response (EC50) was determined as 0.63 µM.
As for `N=C(N)c1ccc(N2CCN(C3CCC(CCC(=O)O)CC3)C2=O)cc1` (stereo not shown) [1(46), 1-(4-amidino-phenyl)-3-[4-(2-carboxy-ethyl)cyclohexyl]-imidazolidin-2-one], the half-maximal inhibitory concentration (IC50) in experiment [1] came to 0.011 µM. Also, the EC50 in experiment [2] was found to be 0.04 µM.
In the case of `N=C(N)c1ccc(-n2cnn(-c3ccc(CCC(=O)O)cc3)c2=O)cc1` [1(146), 4-(4-amidino-phenyl)-2-[4-(2-carboxy-ethyl)-phenyl]-4H-1,2,4-triazol-3-one], the IC50 in experiment [1] came out at 0.0065 µM. For the same molecule, the concentration for a half-maximal effect (EC50) in experiment [2] is 0.05 µM.
Taken in the same sequence, the figures for `COC(=O)C(N)Cc1ccc(N2CCN(c3ccc(CN)cc3)C2=O)cc1` (stereo not shown) [8(3), 1-[4-(2-amino-2-methoxycarbonyl-ethyl)-phenyl]-3-(4-aminomethyl-phenyl)-imidazolidin-2-one dihydrochloride] were 29 µM and 6.2 µM.
Taken in the same sequence, the figures for `COC(=O)CCc1ccc(N2C(=O)CN(c3ccc(C(=N)NC(=O)OC)cc3)C2=O)cc1` [5(13), 1-(4-methoxycarbonylamidino-phenyl)-3-[4-(2-methoxycarbonyl-ethyl)-phenyl]-imidazolidin-2,4-dione] were greater than 10 µM and 24 µM.
Taken in the same sequence, the figures for `COC(=O)CNCCN1CCN(c2ccc(C(=N)N)cc2)C1=O` [2(75), 1-(4-amidino-phenyl)-3-(2-methoxycarbonylmethylamino-ethyl)-imidazolidin-2-one hydrochloride-acetate] were 8 µM and 27 µM.
On to `N=C(N)c1ccc(N2CCN(c3ccc(CC(N)C(=O)O)cc3)C2=O)cc1` (stereo not shown) [4(18), 1-(4-amidino-phenyl)-3-[4-(2-amino-2-carboxy-ethyl)-phenyl]-imidazolidin-2-one], for which the IC50 in experiment [1] was determined as 0.048 µM. In addition, in experiment [2], the EC50 turned out to be 0.21 µM.
Taken in the same sequence, the figures for `CCc1nn(-c2ccc(C(=N)N)cc2)c(=O)n1-c1ccc(CCC(=O)OC)cc1` [2(119), 2-(4-amidino-phenyl)-5-ethyl-4-[4-(2-methoxycarbonyl-ethyl)-phenyl]-4H-1,2,4-triazol-3-one hydrochloride] were 0.28 µM and 0.04 µM.
For the molecule `COC(=O)CN1CCN(c2ccc(-c3ccc(C(=N)N)cc3)cc2)C1=O` [Example 2, 1-(4'-Amidino-4-biphenylyl)-3-methoxycarbonylmethyl-imidazolidin-2-one hydrochloride], the IC50 in experiment [1] was 6 µM. In experiment [2], the EC50 stood at 12 µM.
Taken in the same sequence, the figures for `COC(=O)CC(C)(C)c1ccc(N2CCN(c3ccc(C(=N)N)cc3)C2=O)cc1` [2(47), 1-(4-amidino-phenyl)-3-[4-(3-methoxycarbonyl-2-methyl-2-propyl)-phenyl]-imidazolidin-2-one hydrochloride] were 32 µM and greater than 100 µM.
Taken in the same sequence, the figures for `N=C(N)c1ccc(-n2ccn(-c3ccc(C=CC(=O)O)cc3)c2=O)cc1` [1(147), 1-(4-amidino-phenyl)-3-[4-(2-carboxy-ethenyl)-phenyl]-3H-imidazol-2-one] were 0.027 µM and 0.16 µM.
On to `NCc1ccc(N2CCN(c3ccc(CCC(=O)O)cc3)C2=O)cc1` [1(59)], for which, in experiment [1], the IC50 stood at 0.15 µM. Further, the EC50 in experiment [2] was determined as 0.35 µM.
Turning to `N=C(N)c1ccc(-c2ccc(N3CCCN(CC(=O)O)C3=O)cc2)cc1` [1(5), 1-(4'-amidino-4-biphenylyl)-3-carboxymethyl-3,4,5,6-tetrahydro-1H-pyrimidin-2-one], the IC50 in experiment [1] was determined as 6.1 µM. Further, the 50% effective concentration (EC50) in experiment [2] came out at 32 µM.
Turning to `N=C(N)c1ccc(N2CCCN(c3ccc(CCC(=O)O)cc3)C2=O)cc1` [1(7), 1-(4-amidino-phenyl)-3-[4-(2-carboxy-ethyl)-phenyl]-3,4,5,6-tetrahydro-1H-pyrimidin-2-one], in experiment [1], the half-maximal inhibitory concentration (IC50) came to 2.4 µM. In addition, the EC50 in experiment [2] is 10 µM.
With `N=C(N)c1ccc(-c2ccc(-n3c(=O)n(CCC(=O)O)c4cccnc43)cc2)cc1` [1(143), 3-(4'-amidino-4-biphenylyl)-1-(2-carboxy-ethyl)-3H-imidazo[4,5-b]pyridin-2-one], in experiment [1], the 50% inhibitory concentration (IC50) is greater than 10 µM. In addition, the EC50 in experiment [2] turned out to be 22 µM.
For the molecule `CC(N)c1ccc(N2CCN(c3ccc(CCC(=O)O)cc3)C2=O)cc1` (stereo not shown) [1(153), 1-[4-(1-amino-ethyl)-phenyl]-3-[4-(2-carboxy-ethyl)-phenyl]-imidazolidin-2-one], the concentration for half-maximal inhibition (IC50) in experiment [1] is 0.15 µM. Moreover, in experiment [2], the EC50 came out at 0.38 µM.
Taken in the same sequence, the figures for `COC(=O)CCn1cc(-c2ccc(-c3ccc(C(=N)N)cc3)cc2)[nH]c1=O` [2(104), 4-(4'-amidino-4-biphenylyl)-1-(2-methoxycarbonyl-ethyl)-3H-imidazol-2-one hydrochloride] were 7.1 µM and 2.1 µM.
Taken in the same sequence, the figures for `N=C(N)c1ccc(-c2ccc(N3CCCN(CCC(=O)O)C3=O)cc2)cc1` [1(4), 1-(4'-amidino-4-biphenylyl)-3-(2-carboxy-ethyl)-3,4,5,6-tetrahydro-1H-pyrimidin-2-one] were 3.9 µM and greater than 100 µM.
Taken in the same sequence, the figures for `N=C(N)c1ccc(-c2ccc(N3CCN(CCC(=O)O)C3=O)cc2)cc1` [1(1), 1-(4'-amidino-4-biphenylyl)-3-(2-carboxy-ethyl)-imidazolidin-2-one] were 0.045 µM and 1.5 µM.
Take `COC(=O)CCC1CCC(N2CCN(c3ccc(C(=N)N)cc3)C2=O)CC1` (stereo not shown) [2(43), 1-(4-amidino-phenyl)-3-[4-(2-methoxycarbonyl-ethyl)-cyclohexyl]-imidazolidin-2-one hydrochloride]: in experiment [1], the IC50 worked out at 0.42 µM. In addition, the EC50 in experiment [2] is 0.1 µM.
Turning to `COC(=O)CCCCn1c(=O)n(-c2ccc(C(=N)N)cc2)c2ncccc21` [2(116), 3-(4-amidino-phenyl)-1-(4-methoxycarbonyl-butyl)-3H-imidazo[4,5-b]pyridin-2-one dihydrochloride], in experiment [1], the IC50 is 59 µM. Moreover, the 50% effective concentration (EC50) in experiment [2] was found to be 49 µM.
Taken in the same sequence, the figures for `COC(=O)CCc1ccc(N2CCN(c3ccc(C(=N)N)cc3C)C2=O)cc1` [2(34), 1-(4-amidino-2-methyl-phenyl)-3-[4-(2-methoxycarbonyl-ethyl)-phenyl]-imidazolidin-2-one hydrochloride] were 7.4 µM and 0.35 µM.
In the case of `COC(=O)CCc1ccc(N2CCN(c3ccc(CN)cc3C)C2=O)cc1` [8(5), 1-(4-aminomethyl-2-methyl-phenyl)-3-[4-(2-methoxycarbonyl-ethyl)-phenyl]-imidazolidin-2-one], the IC50 in experiment [1] worked out at 3 µM. The EC50 in experiment [2] worked out at 5.9 µM.
Taken in the same sequence, the figures for `N=C(N)c1ccc(-c2ccc(C3CN(CCC(=O)O)C(=O)N3c3ccccc3)cc2)cc1` (stereo not shown) [4(13), 4-(4'-amidino-4-biphenylyl)-1-(2-carboxy-ethyl)-3-phenyl-imidazolidin-2-one hydrochloride] were 0.032 µM and 0.31 µM.
Taken in the same sequence, the figures for `COC(=O)CN1CCCN(c2ccc(-c3ccc(C(=N)N)cc3)cc2)C1=O` [2(5), 1-(4'-amidino-4-biphenylyl)-3-methoxycarbonylmethyl-3,4,5,6-tetrahydro-1H-pyrimidin-2-one hydrochloride] were 5.6 µM and 25 µM.
Taken in the same sequence, the figures for `COC(=O)CCc1ccc(-n2c(C)nn(-c3ccc(C(=N)N)cc3)c2=O)cc1` [2(118), 2-(4-amidino-phenyl)-4-[4-(2-methoxycarbonyl-ethyl)-phenyl]-5-methyl-4H-1,2,4-triazol-3-one hydrochloride] were 2 µM and 0.07 µM.
For the molecule `CN1C(=O)N(c2ccc(CCC(=O)O)cc2)CC1c1ccc(C(=N)N)cc1` (stereo not shown) [4(16), 4-(4-amidino-phenyl)-1-[4-(2-carboxy-ethyl)-phenyl]-3-methyl-imidazolidin-2-one hydrochloride], the IC50 in experiment [1] turned out to be 1.5 µM. The EC50 in experiment [2] came to 1.9 µM.
Taken in the same sequence, the figures for `N=C(N)c1ccc(-c2ccc(C3CN(CCC(=O)O)C(=O)N3)cc2)cc1` (stereo not shown) [4(15), 4-(4'-amidino-4-biphenylyl)-1-(2-carboxy-ethyl)-imidazolidin-2-one hydrochloride] were 0.042 µM and 0.3 µM.
Taken in the same sequence, the figures for `N=C(N)c1ccc(-c2ccc(N3CCN(CC(=O)O)C3=O)cc2)cc1` [Example 1, 1-(4'-Amidino-4-biphenylyl)-3-carboxymethyl-imidazolidin-2-one] were 1.8 µM and 9.9 µM.
